Where two headings read alike, the source gives them in different places. Bounds are passed on as bounds.

Test [1] concerns the target T1, FAAH (Mus musculus, UniProt O08914).
T1 sequence (O08914 1-579): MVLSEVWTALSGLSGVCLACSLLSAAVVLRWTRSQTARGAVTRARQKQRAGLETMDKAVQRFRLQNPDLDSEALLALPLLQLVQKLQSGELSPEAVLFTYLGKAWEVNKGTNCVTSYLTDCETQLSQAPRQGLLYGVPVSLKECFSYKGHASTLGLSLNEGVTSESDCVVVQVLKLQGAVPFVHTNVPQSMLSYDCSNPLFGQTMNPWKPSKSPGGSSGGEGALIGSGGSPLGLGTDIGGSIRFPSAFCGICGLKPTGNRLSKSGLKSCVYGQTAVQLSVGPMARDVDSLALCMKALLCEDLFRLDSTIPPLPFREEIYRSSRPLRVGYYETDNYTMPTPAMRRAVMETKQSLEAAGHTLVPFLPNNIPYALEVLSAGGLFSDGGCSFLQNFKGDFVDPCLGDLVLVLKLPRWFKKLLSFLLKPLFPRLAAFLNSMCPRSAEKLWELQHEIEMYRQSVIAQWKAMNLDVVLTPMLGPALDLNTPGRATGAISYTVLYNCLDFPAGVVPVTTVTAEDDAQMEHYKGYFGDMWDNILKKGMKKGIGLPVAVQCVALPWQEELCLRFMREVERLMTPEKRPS
Briefly: In vitro competitive activity-based protein profiling, FAAH, mouse. The following applies: read-out: FAAH % inh. 1 μM (mouse).

In test [2] the target is T2, FAAH (Homo sapiens, UniProt O00519).
T2 sequence (O00519 1-579): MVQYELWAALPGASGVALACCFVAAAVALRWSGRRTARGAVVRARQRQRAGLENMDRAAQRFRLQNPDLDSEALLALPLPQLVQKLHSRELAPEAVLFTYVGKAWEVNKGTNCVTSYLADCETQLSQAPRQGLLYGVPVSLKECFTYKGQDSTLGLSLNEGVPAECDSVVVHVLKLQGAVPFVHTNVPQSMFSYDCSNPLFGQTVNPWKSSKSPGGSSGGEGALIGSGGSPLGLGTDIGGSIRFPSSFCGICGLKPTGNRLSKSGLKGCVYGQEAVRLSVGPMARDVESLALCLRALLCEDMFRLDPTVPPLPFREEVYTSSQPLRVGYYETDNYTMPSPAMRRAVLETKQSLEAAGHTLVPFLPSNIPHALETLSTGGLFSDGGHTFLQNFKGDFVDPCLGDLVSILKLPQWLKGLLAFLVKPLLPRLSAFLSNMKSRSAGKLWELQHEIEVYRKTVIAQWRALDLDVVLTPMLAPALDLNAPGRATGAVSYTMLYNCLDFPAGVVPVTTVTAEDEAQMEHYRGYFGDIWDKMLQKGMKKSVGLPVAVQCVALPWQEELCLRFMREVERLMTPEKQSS
Briefly: In vitro competitive activity-based protein profiling, FAAH, human.

In test [3] the target is T1, FAAH. The test can be described thus: Mouse brain proteomes from inhibitor treated mice (oral gavage, sacrificed 4 h after administration), FAAH. The test is classed as in vivo. Set-up: mouse brain membrane fraction for mouse assays; from tissue; host or cells: mouse brain (membrane fraction in vitro; brain proteomes of treated C57Bl/6J mice in vivo). Conditions: 5 mg/kg oral gavage, brain proteome 4 h after administration, read-out: FAAH % inh. 5 mg/kg (mouse).

In test [4] the target is T3, MAGL (Mus musculus, UniProt O35678).
T3 sequence (O35678 1-303): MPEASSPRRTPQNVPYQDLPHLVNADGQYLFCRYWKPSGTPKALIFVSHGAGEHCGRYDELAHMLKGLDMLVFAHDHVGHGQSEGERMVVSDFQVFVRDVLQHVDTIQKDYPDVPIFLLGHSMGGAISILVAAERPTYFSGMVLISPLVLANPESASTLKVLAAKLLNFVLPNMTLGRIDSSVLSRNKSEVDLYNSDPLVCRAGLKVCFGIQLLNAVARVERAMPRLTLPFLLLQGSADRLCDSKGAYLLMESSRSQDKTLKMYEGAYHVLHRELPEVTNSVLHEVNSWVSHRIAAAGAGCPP
Briefly: Mouse brain proteomes from inhibitor treated mice (oral gavage, sacrificed 4 h after administration). In kind it is in vivo. Set-up: mouse brain membrane fraction for mouse assays; from tissue; host or cells: mouse brain (membrane fraction in vitro; brain proteomes of treated C57Bl/6J mice in vivo). The following applies: 5 mg/kg oral gavage, brain proteome 4 h after administration, read-out: MAGL % inh. 5 mg/kg (mouse).

The target in test [5] is T3, MAGL. The test can be described thus: In vitro competitive activity-based protein profiling, MAGL, mouse. Conditions: read-out: MAGL % inh. 1 μM (mouse).
Test [6] has as its target T4, MAGL (Homo sapiens, UniProt Q99685).
T4 sequence (Q99685 1-303): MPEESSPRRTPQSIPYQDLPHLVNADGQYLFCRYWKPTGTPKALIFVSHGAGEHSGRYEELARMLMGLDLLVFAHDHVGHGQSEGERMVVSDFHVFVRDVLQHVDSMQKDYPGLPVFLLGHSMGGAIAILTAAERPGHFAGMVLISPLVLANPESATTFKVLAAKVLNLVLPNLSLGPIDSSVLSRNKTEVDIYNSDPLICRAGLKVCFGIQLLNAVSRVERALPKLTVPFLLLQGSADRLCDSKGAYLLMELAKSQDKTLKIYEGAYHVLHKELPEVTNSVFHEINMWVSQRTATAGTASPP
The test can be described thus: In vitro competitive activity-based protein profiling, MAGL, human. The following applies: read-out: MAGL % inh. 1 μM (human).

The term IC50 denotes the midpoint of a concentration-inhibition curve. A higher IC50 goes with weaker potency. Consider `O=C(O)c1ccn(C(=O)N2CCN(Cc3ccc(C(F)(F)F)cc3N3CCOCC3)CC2)n1` [Example 3, 1-(4-(2-Morpholino-4-(trifluoromethyl)benzyl)piperazine-1-carbonyl)-1H-pyrazole-3-carboxylic Acid], for which the inhibition at 1 µM on FAAH [1] was 0 to 25%; on MAGL [5], above 75%. At FAAH [2], the IC50 was in the range of 1 to 10 µM. Besides, the inhibition at 5 mg/kg on FAAH [3] and on MAGL [4] was 0 to 25% in each case.

`C[C@@H]1C[C@H](N(C)Cc2cccc(C(F)(F)F)c2)CCN1C(=O)n1ccc(C(N)=O)n1` [Example 257, 1-((2R,4R)-2-methyl-4-(methyl(3-(trifluoromethyl)benzyl)amino)piper-idine-1-carbonyl)-1H-pyrazole-3-carboxamide]: the inhibition at 1 µM on MAGL [6] and on MAGL [5] was above 75% each time. Moreover, the inhibition at 5 mg/kg on MAGL [4] was above 75%.

As for `C[C@@H]1CN(Cc2ccc(C(F)(F)F)cc2N2C3CCC2COC3)CCN1C(=O)n1ccc(C(=O)O)n1` [Example 393, 1-((2R)-4-(2-(3-oxa-8-azabicyclo[3.2.1]octan-8-yl)-4-(trifluoromethyl)benzyl)-2-methylpiperazine-1-carbonyl)-1H-pyrazole-3-carboxylic acid], the inhibition at 1 µM at MAGL [6] and at MAGL [5] was above 75% in each case. Moreover, the inhibition at 5 mg/kg at MAGL [4] is 0 to 25%.

For `NC(=O)c1ccn(C(=O)N2CC3CN(Cc4ccc(C5(C(=O)O)CCOCC5)cc4C(F)(F)F)CC3C2)n1` (centres unmarked) [Example 35, 4-(4-((5-(3-carbamoyl-1H-pyrazole-1-carbonyl)hexahydropyrrolo[3,4-c]pyrrol-2(1H)-yl)methyl)-3-(trifluoromethyl)phenyl)tetrahydro-2H-pyran-4-carboxylic Acid], the inhibition at 1 µM on MAGL [6] and on MAGL [5] was above 75% in each case. In addition, the inhibition at 5 mg/kg on MAGL [4] was 0 to 25%.

For `O=C(O)c1ccn(C(=O)N2CCC3(CCN(Cc4cc(Cl)cc(Cl)c4Cl)C3)CC2)n1` [Example 337, 1-(2-(2,3,5-trichlorobenzyl)-2,8-diazaspiro[4.5]decane-8-carbonyl)-1H-pyrazole-3-carboxylic acid], the inhibition at 1 µM at MAGL [6] and on MAGL [5] was above 75% each time. Also, the inhibition at 5 mg/kg at MAGL [4] is 0 to 25%.

On to `CC(C)c1cccc(O[C@H]2C[C@@H]3CN(C(=O)n4ccc(C(=O)O)n4)C[C@@H]3C2)c1` [Example 220, 1-(trans-5-(3-isopropylphenoxy)ocatahydrocyclo-penta[c]pyrrole-2-carbonyl)-1H-pyrazole-3-carboxylic acid], for which the inhibition at 1 µM at MAGL [6] and on MAGL [5] was above 75% throughout. Further, the inhibition at 5 mg/kg on MAGL [4] is 25 to 50%.

As for `Cc1ccc(Oc2cccc(CN3CCN(C(=O)n4ccc(C(=O)O)n4)CC3)c2)cc1` [Example 251, 1-(4-(3-(p-tolyloxy)benzyl)pi-perazine-1-carbonyl)-1H-pyrazole-3-carboxylic acid], the inhibition at 1 µM on MAGL [6] and at MAGL [5] was above 75% each time. Moreover, the inhibition at 5 mg/kg at MAGL [4] was in the range of 0 to 25%.

As for `O=C(O)c1ccn(C(=O)N2CCC3(CCCN3Cc3ccc(C(F)(F)F)cc3N3CCCCC3)CC2)n1` [Example 404, 1-(1-(2-(piperidin-1-yl)-4-(trifluoromethyl)benzyl)-1,8-diazaspiro[4.5]decane-8-carbonyl)-1H-pyrazole-3-carboxylic acid], the inhibition at 1 µM on MAGL [6] and at MAGL [5] was above 75% throughout. Moreover, the inhibition at 5 mg/kg at MAGL [4] (C57Bl/6J mice) lay within 0 to 25%.

Turning to `O=C(O)c1ccn(C(=O)N2CCC3(CCCN3C(=O)c3ccc(C(F)(F)F)cc3N3CCCC3)CC2)n1` [Example 403, 1-(1-(2-(pyrrolidin-1-yl)-4-(trifluoromethyl)benzoyl)-1,8-diazaspiro[4.5]decane-8-carbonyl)-1H-pyrazole-3-carboxylic acid], the inhibition at 1 µM on MAGL [6] and at MAGL [5] was above 75% throughout. Also, the inhibition at 5 mg/kg at MAGL [4] (C57Bl/6J mice) lay within 0 to 25%.

On to `C[C@H]1CC[C@H](C)N1c1cc(C(F)(F)F)ccc1CN1CCN(C(=O)n2ccc(C(=O)O)n2)CC1` [Example 360, 1-(4-(2-((2S,5S)-2,5-dimethylpyrrolidin-1-yl)-4-(trifluoromethyl)benzyl)piperazine-1-carbonyl)-1H-pyrazole-3-carboxylic acid], for which the inhibition at 1 µM at MAGL [6] and at MAGL [5] was above 75% each time. In addition, the inhibition at 5 mg/kg at MAGL [4] fell in the range of 0 to 25%.

Regarding `CN(Cc1ccc(C(F)(F)F)c(N2CCCC2)c1)C1(C)CCN(C(=O)n2ccc(C(=O)O)n2)CC1` [Example 385, 1-(4-methyl-4-(methyl(3-(pyrrolidin-1-yl)-4-(trifluoromethyl)benzyl)amino)piper-idine-1-carbonyl)-1H-pyrazole-3-carboxylic acid], the inhibition at 1 µM on MAGL [6] and on MAGL [5] was above 75% each time. At MAGL [4], the inhibition at 5 mg/kg was in the range of 0 to 25%.

Turning to `C[C@@H]1C[C@@H](N(C)Cc2cccc(C(F)(F)F)c2)CCN1C(=O)n1ccc(C(N)=O)n1` [Example 260, 1-((2R,4S)-2-methyl-4-(methyl(3-(trifluoromethyl)benzyl)amino)piper-idine-1-carbonyl)-1H-pyrazole-3-carboxamide], the inhibition at 1 µM on MAGL [6] and on MAGL [5] was above 75% in each case. In addition, on MAGL [4], the inhibition at 5 mg/kg was above 75%.

`Cc1cn(C(=O)N2C[C@H]3C[C@H](OCc4cc(F)cc(Cl)c4)C[C@H]3C2)nc1C(=O)O` [Example 252, 1-(trans-5-((3-chloro-5-fluorobenzyl)oxy)octahydrocyclopenta [c]pyrrole-2-carbonyl)-4-methyl-1H-pyrazole-3-carboxylic acid]: the inhibition at 1 µM on MAGL [6] and on MAGL [5] was above 75% throughout. Besides, at MAGL [4], the inhibition at 5 mg/kg lay in the range of 0 to 25%.

With `O=C(O)c1ccn(C(=O)N2CCC3(CCCN3Cc3ccc(C(F)(F)F)cc3N3CCC(F)CC3)CC2)n1` [Example 413, 1-(1-(2-(4-fluoropiperidin-1-yl)-4-(trifluoromethyl)benzyl)-1,8-diazaspiro[4.5]decane-8-carbonyl)-1H-pyrazole-3-carboxylic acid], the inhibition at 1 µM at MAGL [6] and at MAGL [5] was above 75% each time. At MAGL [4] (C57Bl/6J mice), the inhibition at 5 mg/kg was in the range of 0 to 25%.
